Data set [1] addresses T1, TRPV1 (Homo sapiens, UniProt Q8NER1). As to conditions: read-out: hKi (FLIPR); cited from earlier work.
Target sequence in this assay (Q8NER1 whole entry): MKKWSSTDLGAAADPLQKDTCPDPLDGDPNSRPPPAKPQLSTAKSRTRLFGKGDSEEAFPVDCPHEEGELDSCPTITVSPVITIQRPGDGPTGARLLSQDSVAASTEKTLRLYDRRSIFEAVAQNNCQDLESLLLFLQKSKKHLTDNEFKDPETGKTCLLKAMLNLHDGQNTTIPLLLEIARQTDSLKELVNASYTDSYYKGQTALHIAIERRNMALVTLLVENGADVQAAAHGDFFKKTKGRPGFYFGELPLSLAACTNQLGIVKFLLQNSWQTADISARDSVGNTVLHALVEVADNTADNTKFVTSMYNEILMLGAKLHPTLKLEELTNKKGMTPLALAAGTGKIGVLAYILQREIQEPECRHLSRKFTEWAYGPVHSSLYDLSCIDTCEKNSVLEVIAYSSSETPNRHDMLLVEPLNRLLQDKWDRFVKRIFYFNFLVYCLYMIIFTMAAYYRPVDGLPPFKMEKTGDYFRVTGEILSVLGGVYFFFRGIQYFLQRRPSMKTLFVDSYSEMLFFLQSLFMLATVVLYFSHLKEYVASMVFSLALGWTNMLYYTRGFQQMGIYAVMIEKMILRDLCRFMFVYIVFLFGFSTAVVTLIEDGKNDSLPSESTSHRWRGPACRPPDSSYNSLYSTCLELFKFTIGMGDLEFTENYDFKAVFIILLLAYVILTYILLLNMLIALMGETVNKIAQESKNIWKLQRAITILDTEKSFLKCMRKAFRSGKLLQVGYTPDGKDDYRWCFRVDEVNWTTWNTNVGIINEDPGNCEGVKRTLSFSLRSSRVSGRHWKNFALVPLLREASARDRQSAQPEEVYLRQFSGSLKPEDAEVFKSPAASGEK
Data set [2] addresses T1, TRPV1. As to conditions: cited from earlier work.
Target sequence in this assay (Q8NER1 whole entry, species assumed): as the sequence (Q8NER1 whole entry) above
Data set [3] deals with TRPV4 and other TRP channels. As to conditions: cited from earlier work.
For data set [4], the system named is carrageenan-induced thermal hyperalgesia. As to conditions: cited from earlier work.
Data set [5] concerns bone-cancer pain. As to conditions: in vivo model of bone-cancer pain; cited from earlier work.
For data set [6] the following is noted: rats, 30 mg per kg, orally; cited from earlier work.
Data set [7] concerns CFA-induced thermal hyperalgesia. As to conditions: cited from earlier work.
For data set [8], the target named is T1, TRPV1. As to conditions: read-out: hIC50 (45Ca2+ uptake); cited from earlier work.
Target sequence in this assay (Q8NER1 whole entry): as above
In data set [9] the target is T2, TRPA1 (Homo sapiens, UniProt O75762). As to conditions: read-out: hIC50 at TRPA1; cited from earlier work.
Target sequence in this assay (O75762 whole entry): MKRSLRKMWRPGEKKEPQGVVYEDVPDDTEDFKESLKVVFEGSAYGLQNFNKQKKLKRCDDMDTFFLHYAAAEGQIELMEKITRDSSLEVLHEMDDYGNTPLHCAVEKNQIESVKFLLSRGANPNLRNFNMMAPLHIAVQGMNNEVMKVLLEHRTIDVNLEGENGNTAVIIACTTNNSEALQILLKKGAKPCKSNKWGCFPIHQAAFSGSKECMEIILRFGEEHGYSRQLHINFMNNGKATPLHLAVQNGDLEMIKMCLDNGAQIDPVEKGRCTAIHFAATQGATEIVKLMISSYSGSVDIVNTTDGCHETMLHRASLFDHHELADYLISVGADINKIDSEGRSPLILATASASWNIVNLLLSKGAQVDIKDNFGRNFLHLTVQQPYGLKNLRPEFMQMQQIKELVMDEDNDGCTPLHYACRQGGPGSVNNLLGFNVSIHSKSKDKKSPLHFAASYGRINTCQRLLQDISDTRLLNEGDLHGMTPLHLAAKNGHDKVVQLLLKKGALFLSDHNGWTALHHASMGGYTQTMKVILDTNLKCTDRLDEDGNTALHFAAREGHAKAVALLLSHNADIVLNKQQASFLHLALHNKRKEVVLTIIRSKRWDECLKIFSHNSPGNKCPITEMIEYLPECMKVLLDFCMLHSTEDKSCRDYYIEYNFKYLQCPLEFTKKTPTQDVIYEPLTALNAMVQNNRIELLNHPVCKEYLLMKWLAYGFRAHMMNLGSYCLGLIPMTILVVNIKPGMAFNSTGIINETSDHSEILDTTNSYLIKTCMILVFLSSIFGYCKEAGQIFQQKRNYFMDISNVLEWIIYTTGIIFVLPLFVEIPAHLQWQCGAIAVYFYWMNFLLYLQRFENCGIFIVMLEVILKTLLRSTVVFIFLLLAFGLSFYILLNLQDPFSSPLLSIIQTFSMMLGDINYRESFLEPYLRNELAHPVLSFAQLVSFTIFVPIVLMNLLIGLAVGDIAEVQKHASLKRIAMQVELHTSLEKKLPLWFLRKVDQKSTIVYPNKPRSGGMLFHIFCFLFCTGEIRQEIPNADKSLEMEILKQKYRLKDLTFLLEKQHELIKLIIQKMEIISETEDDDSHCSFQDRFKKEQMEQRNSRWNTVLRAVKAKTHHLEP
In data set [10] the target is TRPV3 (Homo sapiens, UniProt Q8NET8). As to conditions: read-out: hIC50 at TRPV3; cited from earlier work.
Chain of TRPV3 (Q8NET8 whole entry): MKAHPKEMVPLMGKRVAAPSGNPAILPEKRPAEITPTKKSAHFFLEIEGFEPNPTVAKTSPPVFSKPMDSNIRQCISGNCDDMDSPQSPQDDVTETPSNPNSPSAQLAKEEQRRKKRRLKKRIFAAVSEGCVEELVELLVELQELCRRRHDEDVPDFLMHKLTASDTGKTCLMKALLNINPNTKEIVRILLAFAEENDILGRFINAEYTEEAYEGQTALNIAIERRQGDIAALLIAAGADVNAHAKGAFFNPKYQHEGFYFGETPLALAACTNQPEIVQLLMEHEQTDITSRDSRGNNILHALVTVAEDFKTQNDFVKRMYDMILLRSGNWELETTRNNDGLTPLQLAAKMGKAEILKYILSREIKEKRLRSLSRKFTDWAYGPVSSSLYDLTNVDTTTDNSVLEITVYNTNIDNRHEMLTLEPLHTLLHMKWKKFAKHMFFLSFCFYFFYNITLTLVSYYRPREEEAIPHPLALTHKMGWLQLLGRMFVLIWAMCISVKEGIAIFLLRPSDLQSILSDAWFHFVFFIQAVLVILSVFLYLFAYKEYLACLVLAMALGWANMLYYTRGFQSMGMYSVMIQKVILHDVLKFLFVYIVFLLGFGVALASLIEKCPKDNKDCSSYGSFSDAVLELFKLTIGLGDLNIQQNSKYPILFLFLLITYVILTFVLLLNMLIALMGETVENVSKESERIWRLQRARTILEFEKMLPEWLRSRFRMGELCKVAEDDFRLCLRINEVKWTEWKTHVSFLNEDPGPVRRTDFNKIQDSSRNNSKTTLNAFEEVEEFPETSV
The target of data set [11] is T3, TRPM8 (Homo sapiens, UniProt Q7Z2W7). As to conditions: read-out: hIC50 at TRPM8; cited from earlier work.
Target sequence in this assay (Q7Z2W7 whole entry): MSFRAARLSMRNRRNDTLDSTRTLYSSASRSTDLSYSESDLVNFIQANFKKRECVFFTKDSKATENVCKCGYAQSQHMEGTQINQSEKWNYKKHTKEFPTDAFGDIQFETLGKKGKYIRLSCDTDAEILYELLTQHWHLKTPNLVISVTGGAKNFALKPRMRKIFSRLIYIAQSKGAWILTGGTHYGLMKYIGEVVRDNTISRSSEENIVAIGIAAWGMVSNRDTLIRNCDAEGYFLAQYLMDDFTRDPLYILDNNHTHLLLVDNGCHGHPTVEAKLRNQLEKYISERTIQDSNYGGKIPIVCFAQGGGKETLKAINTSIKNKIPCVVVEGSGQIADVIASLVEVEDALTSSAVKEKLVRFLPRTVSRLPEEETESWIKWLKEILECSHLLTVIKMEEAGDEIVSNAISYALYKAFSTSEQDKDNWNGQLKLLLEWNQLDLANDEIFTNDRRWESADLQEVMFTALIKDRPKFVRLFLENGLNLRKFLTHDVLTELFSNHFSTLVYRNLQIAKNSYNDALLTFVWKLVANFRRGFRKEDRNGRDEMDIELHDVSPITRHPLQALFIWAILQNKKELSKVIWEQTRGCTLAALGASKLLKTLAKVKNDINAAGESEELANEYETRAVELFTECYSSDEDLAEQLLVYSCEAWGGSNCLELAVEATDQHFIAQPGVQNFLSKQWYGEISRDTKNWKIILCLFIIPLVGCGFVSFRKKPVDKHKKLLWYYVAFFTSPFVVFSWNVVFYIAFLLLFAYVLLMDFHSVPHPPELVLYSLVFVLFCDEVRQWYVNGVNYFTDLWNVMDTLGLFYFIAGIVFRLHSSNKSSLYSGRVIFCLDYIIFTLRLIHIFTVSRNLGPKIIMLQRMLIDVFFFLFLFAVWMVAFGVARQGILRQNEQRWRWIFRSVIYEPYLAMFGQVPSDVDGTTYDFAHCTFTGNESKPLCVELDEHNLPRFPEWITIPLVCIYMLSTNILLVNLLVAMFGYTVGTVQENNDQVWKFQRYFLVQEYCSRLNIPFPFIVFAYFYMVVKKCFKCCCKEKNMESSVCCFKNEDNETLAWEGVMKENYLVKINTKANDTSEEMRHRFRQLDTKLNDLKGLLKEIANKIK
Data set [12] concerns the target TRPV4 (Homo sapiens, UniProt Q9HBA0). As to conditions: read-out: hIC50 at TRPV4; cited from earlier work.
The test system of data set [13] is CFA-induced mechanical hyperalgesia. As to conditions: cited from earlier work.
Data set [14] relates to partial nerve-ligation model. As to conditions: cited from earlier work.
Data set [15] has as its system MDA231 breast cancer cells. Briefly: Cell viability assay of MDA231 cells with and without NAC. Format: cell-based, human. As to conditions: 10 mM NAC.
Data set [16] relates to OSCC cell lines (HSC3, SCC4, and SCC25).
Description: Cell viability assays reported as % of vehicle control (n=3). […] VEH=delivery vehicle control without CAP or CPZ. *p<0.05, ***p<0.001.
FIG. 1H-1: Cell viability assays of OSCC cell lines treated with 30 μM CPZ alone or in combination with 10 mM N-Acetyl-L-Cysteine (NAC) for 24 h (n=4); ***p<0.001.
Human OSCC Cell Lines. The human OSCC cell lines MDA231, PS3, SCC4 and SCC25 were obtained from ATCC (American Type Culture Collection, Rockville, Md.). The HSC3 cell line was obtained from the Japanese Cell Resource Bank (Osaka, Japan). […] Cells were maintained in DMEM (GIBCO, Carlsbad, Calif.) supplemented with 10% FBS at 37° C. in 5% CO2. Both cell lines were derived from primary OSCC tumors from the tongues of male patients in their fifth generation of life. Data regarding pertinent medical history, treatment, outcome of care and recurrence were not available.
Statistical Analysis. Statistical analyses were performed using GraphPad Prism4 (San Diego, Calif.). Experiments were performed in triplicate and results are represented as means+SD except when indicated. […] Cytotoxicity assays of cell viability were analyzed by one-way ANOVA and Bonferroni's post-hoc test (n=3).
Data set [17] deals with PC3 prostate cancer cells. Briefly: Cell viability assay of PC3 cells with and without NAC. In kind it is cell-based, human. As to conditions: 10 mM NAC, prostate cancer cells.
Data set [18] deals with OSCC cell lines. As to the kind of experiment: ROS assays by flow cytometry (DCF-DA). In kind it is cell-based, human. As to conditions: 1 h. The method, then: FIGS. 1I-1 to 1I-3. Reactive oxygen species (ROS) assays. The level of ROS in OSCC cell lines was examined by flow cytometry using 2,7-dichlorodihydrofluorescein diacetate (DCFH-DA; Sigma). Approximately 3×10^5 cells were plated in 12-well plates. To detect ROS, cells were incubated for 30 min at 37° C. with DCF-DA, washed and then treated for 1 h with 30 μM capsazepine (grey, thick line), 150 μM capsaicin (grey, thin line), 30 μM capsazepine+150 μM capsaicin (black line), or vehicle control (dotted line). The cells were harvested, washed twice, and analyzed by flow cytometry.
FIGS. 1I-4(a)-(b) to 1I-6(a)-(b). Induction of ROS in OSCC cell lines. (a). ROS induction in OSCC cell lines following 1 h treatment with 30 μM CPZ (black line) compared to vehicle control. (b). ROS induction in OSCC cell lines following 1 h treatment with 30 μM CPZ is reversed by NAC co-treatment (black line) as indicated in the shift in their peaks to the left.
ROS levels in OSCC cell lines were examined by flow cytometry using 2,7-dichlorodihydrofluorescein diacetate (DCF-DA; Sigma-Aldrich, St. Louis, Mo.). Cells (3×10^5) were plated in 12-well plates and incubated for 30 min with DCF-DA at 37° C. then treated with 30 μM capsazepine using phenol free media with and without 10 mM NAC. Treated cells were incubated for 1 h at 37° C., harvested, washed twice, and analyzed by FACS.
On the technique in general: Flow cytometry measures light scatter and fluorescence of single cells or particles in a stream.

Data set [19] has as its target T3, TRPM8. As to conditions: cited from earlier work.
Target sequence in this assay (Q7Z2W7 whole entry, species assumed): as the sequence (Q7Z2W7 whole entry) above
Data set [20] has as its target T2, TRPA1. As to conditions: cited from earlier work.
Target sequence in this assay (O75762 whole entry, species assumed): as the sequence (O75762 whole entry) above
For data set [21] the following is noted: cited from earlier work.
Data set [22] concerns OKF6 cells. Briefly: Cell viability assay of immortalized non-malignant oral keratinocytes. As to conditions: CAP 150 μM, 24 hours. In kind it is cell-based. From the text: FIG. 1D-2. […] Treatment with high concentrations of CAP induces death of normal, non-malignant OKF6 cells. The effect of which was reversed by the pre-treatment with CPZ.
Data set [23] relates to HSC3 cells. Briefly: Cell viability assay of HSC3 cells, dose response curve. Format: cell-based. As to conditions: Homo sapiens, HSC-3, HSC3 cells, FIG. 1K. From the text:
FIG. 1K. Cell viability assay of HSC3 cells treated with increasing concentrations of curcumin; […]

In data set [24] the test system is OSCC cell lines (HSC3, SCC4, and SCC25). As to the kind of experiment: Calcium imaging of OSCC cell lines. In kind it is cell-based, human. The method, then:
FIGS. 1J-1 to 1J-2. FIGS. 1J-1(a) to (c): […] FIGS. 1J-2(a) to (c): […] Arrow indicates time point when treatment was added. […] This was due to the toxic effects of this high capsaicin concentration which permeablized the cell membrane allowing calcium to flow freely […] the cell. This was not reversed by capsazepine. […] These finding confirm that activation of TRPV1 is not the mechanism by which cell death is induced using capsazepine.

In data set [25] the test system is immortalized human bronchiolar epithelial cell line transformed with a TRPV1 insert. As to conditions: TRPV1-overexpressing cultured cells, treatment with CAP; cited from earlier work.
Data set [26] has as its system capsaicin-evoked flare and acute heat-evoked pain. As to conditions: Phase I; cited from earlier work.

Like-named read-outs stand apart in the source and are kept apart here. Where only a bound is given, the exact number is not on record here.

Chain of TRPV4 (Q9HBA0 whole entry): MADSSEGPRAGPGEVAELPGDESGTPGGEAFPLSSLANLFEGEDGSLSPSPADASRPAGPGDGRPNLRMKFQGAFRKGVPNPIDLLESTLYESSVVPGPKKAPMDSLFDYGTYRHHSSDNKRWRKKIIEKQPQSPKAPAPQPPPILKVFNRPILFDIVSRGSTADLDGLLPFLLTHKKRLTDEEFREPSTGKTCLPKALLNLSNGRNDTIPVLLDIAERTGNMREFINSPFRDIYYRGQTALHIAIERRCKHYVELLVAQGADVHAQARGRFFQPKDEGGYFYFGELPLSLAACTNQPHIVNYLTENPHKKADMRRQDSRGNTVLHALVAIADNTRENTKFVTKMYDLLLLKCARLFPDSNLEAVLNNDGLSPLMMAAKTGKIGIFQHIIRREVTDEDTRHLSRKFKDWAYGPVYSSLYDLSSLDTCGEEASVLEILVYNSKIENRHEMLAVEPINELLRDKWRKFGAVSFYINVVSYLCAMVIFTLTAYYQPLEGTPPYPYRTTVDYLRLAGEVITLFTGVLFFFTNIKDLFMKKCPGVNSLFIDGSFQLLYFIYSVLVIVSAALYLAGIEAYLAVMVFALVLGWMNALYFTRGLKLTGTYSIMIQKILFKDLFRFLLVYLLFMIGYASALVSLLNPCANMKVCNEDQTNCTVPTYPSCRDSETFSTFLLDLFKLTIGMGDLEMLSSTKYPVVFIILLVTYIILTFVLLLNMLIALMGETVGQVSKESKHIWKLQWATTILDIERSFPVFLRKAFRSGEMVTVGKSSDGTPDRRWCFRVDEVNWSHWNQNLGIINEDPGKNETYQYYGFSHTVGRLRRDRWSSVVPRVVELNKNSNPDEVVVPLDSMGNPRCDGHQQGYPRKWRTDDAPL

With `COc1cccc(NC(=O)/C=C/c2ccc(Cl)cc2)c1` [SB-366791], the Ki in data set [1] was 0.018 µM. In addition, in data set [2], the “capsaicin and heat-mediated activation of TRPV1” value is recorded as “Inhibits”. In data set [3], the “selectivity versus TRPV4 and other TRP channels” value is “Selective”.

As to `FC(F)(F)c1ccc(Nc2ncnc3cc(-c4ncccc4C(F)(F)F)ccc23)cc1` [Quinazoline analog], the “block of carrageenan-induced thermal hyperalgesia” value in data set [4] (at 3 mg per kg) is given as 80%. Also, in data set [4] (minimum effective dose), the “MED, carrageenan-induced thermal hyperalgesia” value is listed as 0.1 mg per kg.

On to `O=C(Nc1ccc(C(F)(F)F)cn1)N1CCN(c2ncccc2C(F)(F)F)CC1` [JNJ-17203212], for which the nocifensive behaviors entry in [5] is given as “Attenuates”. The “increase in core body temperature” value in [6] is approximately 1 °C.

As for `C[C@@H]1CN(c2ncc(C(O)CO)cc2Cl)CCN1c1nc2c(-c3cc(F)c(F)c(F)c3)cc(C(F)(F)F)cc2[nH]1` (stereo partly drawn) [Compound 46ad], the “reversal of CFA-induced thermal hyperalgesia” value in data set [7] (30 mg per kg, orally) is “significant reversal”. In addition, the IC50 in data set [8] is 0.001 µM.

For the compound `CC(C)(C)c1ccc(/C=C/C(=O)Nc2ccc3c(c2)OCCO3)cc1` [AMG-9810], the IC50 in data set [9], in data set [10], in data set [11] and in data set [12] was more than 4 µM throughout. The CFA-induced thermal hyperalgesia entry in [7] (30 mg per kg) is “Inhibits”. Besides, the CFA-induced mechanical hyperalgesia entry in data set [13] (100 mg per kg) is “Inhibits”.

For the compound `Cc1nc2cc(C(C)C)c(-c3ccc(Cl)c(OCC4CC4)c3)cc2c(=O)[nH]1` [Compound 26], the “reversal of CFA-induced mechanical hyperalgesia” value in data set [13] (30 mg per kg, orally) is 60%. Moreover, the “reversal of mechanical hyperalgesia” value in [14] was 57%.

Consider `CC(=O)N[C@@H](CS)C(=O)O` [NAC, N-Acetyl-L-Cysteine], for which the “effect of NAC on the effects of CPZ” value in data set [15] is recorded as “reverse significantly”; in data set [16] (10 mM NAC, all OSCC cell lines tested), “reverse significantly”; in [17], “reverse significantly”. The “ROS induction by 30 μM CPZ with NAC co-treatment” value in data set [18] (10 mM NAC) is “reversed”.

As to `O=C(NCc1ccc(C(F)(F)F)cc1)Nc1cccc2cnccc12` [A-425619], the “ED50, CFA-induced thermal hyperalgesia” value in data set [7] (in vivo) was 10 mg per kg. The IC50 in data set [19] was 8 µM; in data set [20] it was more than 10 µM.

Take AMG 517: in data set [7] (at 10 mg per kg), the “block of CFA-induced thermal hyperalgesia” value is given as approximately 40%. The “MED, CFA-induced thermal hyperalgesia” value in data set [7] (minimum effective dose) was 1 mg per kg. For the same compound, in [8], the IC50 is 0.0009 µM. The body temperature increases in data set [21] (doses of 2 mg, in one patient) was approximately 3 °C. In addition, the hyperthermia entry in data set [21] (seen at 0.3-3 mg/kg, oral administration) is “up to 1.5 °C”.

Consider `COc1cc(CNC(=O)CCCC/C=C/C(C)C)ccc1O` [CAP, capsaicin], for which the “cell viability of normal, non-malignant cells” value in data set [22] is given as “induces death”. The same compound returned an IC50 in data set [23] of approximately 150 µM. For the same compound, the calcium influx entry in [24] (20 μM capsaicin) is recorded as “fails to cause an influx of calcium”. Further, the calcium flow entry in data set [24] (150 μM capsaicin (cytotoxic level)) was “calcium outflow occurred over a prolonged period of time”. In [16] (30 μM, 24 hrs, HSC3, SCC4, SCC25), the “cell viability / cytotoxic effects” value was “does not”. For the same compound, in data set [16] (150 μM, HSC3, SCC4 and SCC25), the cell viability result is listed as “significantly reduces cell viability”. In [25], the apoptosis entry is “did result in apoptosis”. Moreover, the “level of ROS” value in data set [18] (150 μM capsaicin) is listed as “increase in ROS”.

Turning to `CC(C)(C)c1ccc(NC(=O)N2CCN(c3ncccc3Cl)CC2)cc1` [BCTC, N-(4-tertiarybutylphenyl)-4-(3-chloropyridin-2-yl)tetrahydropyrazine-1(2H)-carboxamide], the CFA-induced thermal hyperalgesia entry in data set [7] (3-30 mg per kg, orally) is “Inhibits”. Also, in data set [19], the IC50 is 0.143 µM. Further, the CFA-induced mechanical hyperalgesia entry in data set [13] (3-30 mg per kg, orally) was “Inhibits”. In addition, in data set [14], the tactile allodynia entry is recorded as “Reduces” and the thermal hyperalgesia result is on record as “Reduces”.

Take `O=C(Nc1ccccc1Br)N[C@@H]1CCN(c2ccc(C(F)(F)F)cn2)C1` [SB-705498]: in data set [26], the “acute heat-evoked pain on non-sensitized skin” value was “reduced” and the capsaicin-evoked flare result is listed as “reduced”.

In turn, `COc1cc(/C=C/C(=O)CC(=O)/C=C/c2ccc(O)c(OC)c2)ccc1O` [curcumin] gave an IC50 in data set [23] of 90 µM.

These data come from patent US9642859B2, “Use of capsazepine and analogs thereof to treat cancer” (THE BOARD OF REGENTS OF THE UNIVERSITY OF TEXAS SYSTEM, priority 2012, dated 2017).
